Measured values taken from patent publication US10526585B2 (priority 2015, dated 2020).

Format: biochemical
Settings: pH 7.5

Going from N[C@@H](CCCCNC1=CC(=O)C(=O)C=C1C[C@H](N)C(=O)O)C(=O)O [LTQ, lysine tyrosylquinone] to O=C(O)c1cc(C(=O)O)c2c(n1)C(=O)C(=O)c1cc(C(=O)O)[nH]c1-2 [PCC, pyrroloquinoline quinone], the “DON [ppm]” value falls from 2.04 ppm to 1.94 ppm.

Compared with topaquinone [TPQ], [Mn+2] [Mn^2+] is higher in “DON [ppm]” value: 2.41 ppm for the first, 2.57 ppm for the second.

Compared with [Fe+2] [Fe^2+], tryptophan tryptophylquinone [TTQ] is higher in “DON [ppm]” value: 2.17 ppm for the first, 2.32 ppm for the second.

First: COC1=C(OC)C(=O)C(CC=C(C)C)=C(C)C1=O [coenzyme Q1]
Second: CN(C)c1ccc2nc3ccc(=[N+](C)C)cc-3sc2c1 [methylene blue]
The “DON [ppm]” value of the first is higher: 8.58 ppm for the first, 6.88 ppm for the second.

Going from [Mg+2] [Mg^2+] to [Zn+2] [Zn^2+], the “DON [ppm]” value rises from 1.90 ppm to 2.46 ppm.

First: [Ca+2] [Ca^2+]
Second: COS(=O)(=O)[O-].C[n+]1c2ccccc2nc2ccccc21 [PMS, phenazine methosulphate]
The “DON [ppm]” value of the first is higher: 1.98 ppm for the first, 1.95 ppm for the second.

In the case of [Cu+2] [Cu^2+], the “DON [ppm]” value is reported as 2.61 ppm.
